Experiments:
SK-MEL-28 tumor cells = test: Cell growth inhibition assay (CellTiter-Glo), SK-MEL-28; type: cell-based, Human; settings: Homo sapiens, SK-MEL-28, 72 h; 3 days incubation
Experimental: (§1) Human breast tumor cells (BT474) were cultured in RPMI (Mediatech […]), containing 10% FBS (JRH Biosciences 12176) and 1% penicillin-streptomycin (Invitrogen 15140). Human head and neck tumor cells (HN5) were cultured in high glucose DMEM (Mediatech 50-013-PB) containing 10% FBS and 1% penicillin-streptomycin. Human colon tumor cells (Colo205) were cultured in RPMI (Mediatech 50-020-PB) containing 10% FBS and 1% penicillin-streptomycin. Human melanoma cancer cells (SK-MEL-28) were cultured in EMEM with nonessential amino acids (Mediatech 50-011-PB) containing 10% FBS, 1% sodium pyruvate (JT Baker 3354-04), and 1% penicillin-streptomycin. Human melanoma cancer cells (A375P F11s) were cultured in RPMI (Mediatech 50-020-PB) containing 10% FBS, 1% sodium pyruvate, and 1% penicillin-streptomycin. Human colon cancer cells (HT-29) were cultured in high glucose DMEM (Mediatech 50-013-PB) containing 10% FBS and 1% penicillin-streptomycin. Human melanoma cancer cells (SK-MEL-3) were cultured in McCoy's 5A (50-025-PB) containing 15% FBS, and 1% penicillin-streptomycin. All cell lines were maintained at 37° C. in a humidified 5% CO2, 95% air incubator. Cells were harvested using trypsin/EDTA (Invitrogen 25200), counted using a haemocytometer, and plated. For 96-well assays (using white full-area NUNC plates cat. #136102), cells were plated in 105 μL at the following densities (cells/well): HNS, 500; Colo 205, 500; SK-MEL-28, 500; A375P F11s, 500; HT-29, 500; SK-MEL-3, 500; and BT474, 3000. For 384-well assays (white full-area NUNC plates, cat. #781080), cells were plated in 48 μL at the following densities (cells/well): HNS, 500; Colo205, 500; SK-MEL-28, 500; A375P F11s, 500; HT-29, 500; SK-MEL-3, 500; and BT474, 2000.
(§2) The next day, compounds were diluted as follow: For 96-well assays, 13.5 μL of compound in DMSO were diluted using nine (9) serial 1:3 dilutions of 4.5 μL in 9 of DMSO. Medium (270 μL/well of RPMI with 10% FBS and 1% penicillin-streptomycin) was added to the plates. Aliquots (7 μL) were added to cells in the final assay giving a final DMSO concentration of 0.2%. For 384-well assays, 15 μL of compound in DMSO were diluted using nine (9) serial 1:3 dilutions of 5 μL in 10 μL of DMSO, followed by a further dilution of 5 μL of compound with 95 μL of medium, of which 2 μL were added to cells in the final assay giving a final DMSO concentration of 0.2%. Cells were incubated at 37° C., 5% CO2 for 3 days.
(§3) Total ATP was measured (as a surrogate estimate of cell number) using CellTiter-Glo® reagent (Promega G7571). Briefly, plates were removed from the incubator and allowed to equilibrate to room temperature for 30 minutes. CellTiter-Glo® (25 μL or 55 μL for 384-well or 96-well assays, respectively) reagent was added to each well and plates were shaken on an orbital plate shaker for 2 minutes. Plates were incubated without shaking for a further 30 minutes and read on an LJL Analyst GT reader in luminometer mode with an integration time of 0.5 seconds per well. Percent inhibition of cell growth was calculated relative to DMSO vehicle-treated control wells. Concentration of compound required to give 50% inhibition of vehicle-treated control cell growth (IC50) was interpolated using a 4-parameter fit for determining IC50 using the following equation: Y=A +((B−A)/(1+((C/X)̂D))) where […].

ErbB2 = target: T1, ErbB2 (Homo sapiens, UniProt P04626); test: ErbB-2 substrate phosphorylation assay (HTRF); type: biochemical
T1 construct: made in house; host or cells: baculovirus expression system
T1 sequence (P04626 23-1255): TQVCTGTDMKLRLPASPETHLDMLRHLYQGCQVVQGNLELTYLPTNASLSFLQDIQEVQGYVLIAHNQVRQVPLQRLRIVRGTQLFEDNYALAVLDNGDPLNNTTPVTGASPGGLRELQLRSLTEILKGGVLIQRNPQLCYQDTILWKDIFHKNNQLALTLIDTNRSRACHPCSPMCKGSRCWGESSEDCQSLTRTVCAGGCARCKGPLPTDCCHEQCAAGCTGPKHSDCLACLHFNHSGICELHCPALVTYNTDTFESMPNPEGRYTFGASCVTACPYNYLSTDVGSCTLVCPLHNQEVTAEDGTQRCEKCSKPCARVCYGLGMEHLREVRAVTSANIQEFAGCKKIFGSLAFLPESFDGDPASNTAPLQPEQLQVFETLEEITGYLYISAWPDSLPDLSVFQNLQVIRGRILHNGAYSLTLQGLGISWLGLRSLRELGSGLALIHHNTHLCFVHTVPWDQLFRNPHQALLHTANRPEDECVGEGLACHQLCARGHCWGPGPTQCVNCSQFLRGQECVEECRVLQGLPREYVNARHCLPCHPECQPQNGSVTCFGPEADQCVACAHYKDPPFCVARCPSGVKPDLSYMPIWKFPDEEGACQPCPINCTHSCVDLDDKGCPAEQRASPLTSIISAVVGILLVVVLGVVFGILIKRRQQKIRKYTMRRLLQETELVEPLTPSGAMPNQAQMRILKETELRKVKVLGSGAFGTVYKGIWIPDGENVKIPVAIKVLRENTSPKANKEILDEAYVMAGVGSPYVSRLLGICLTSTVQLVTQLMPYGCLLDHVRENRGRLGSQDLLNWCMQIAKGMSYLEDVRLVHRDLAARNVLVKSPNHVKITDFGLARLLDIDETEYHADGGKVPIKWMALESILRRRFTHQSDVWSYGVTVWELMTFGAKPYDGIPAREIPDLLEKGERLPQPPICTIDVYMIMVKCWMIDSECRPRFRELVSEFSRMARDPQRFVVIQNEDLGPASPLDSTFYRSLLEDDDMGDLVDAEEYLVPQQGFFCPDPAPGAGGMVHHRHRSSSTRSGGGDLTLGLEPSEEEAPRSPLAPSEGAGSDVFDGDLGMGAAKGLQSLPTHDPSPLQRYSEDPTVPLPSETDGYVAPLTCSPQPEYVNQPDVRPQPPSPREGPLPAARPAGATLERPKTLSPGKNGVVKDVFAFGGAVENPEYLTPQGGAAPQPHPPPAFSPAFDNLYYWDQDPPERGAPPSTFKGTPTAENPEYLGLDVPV
Experimental: (§4) Compounds of the present invention were tested for EGFR and ErbB-2 protein tyrosine kinase inhibitory activity in substrate phosphorylation assays using enzymes purified from a baculovirus expression system. Reagent production was conducted essentially as described in Brignola, P. S., et al, (2002) J. Biol. Chem. 277(2):1576-1585.
(§5) The method measures the ability of the isolated enzyme to catalyse the transfer of the gamma-phosphate from ATP onto the tyrosine residue of a biotinylated synthetic peptide referenced “Peptide C” in Brignola, P. S., et al, (2002) J. Biol. Chem. 277(2):1576-1585. The extent of tyrosine phosphorylation was measured using an anti-phosphotyrosine antibody, and quantified by homogenous time-resolved fluorescence (HTRF).
(§6) Reactions were performed in black 384-well polystyrene flat-bottom plates in a final volume of 20 μL. Assays were performed by adding 10 μL of each of the following solutions, Substrate Mix and Enzyme Mix: The Substrate Mix contained 100 mM 3-[N-morpholino]propanesulfonic acid (MOPS) (pH 7.5), 2 mM MnCl2, 20 μM ATP, 0.01% Tween-20, 0.1 mg/mL (BSA), 0.8 uM peptide substrate, and 1 mM dithiothreitol. The Enzyme Mix contained 100 mM MOPS (pH7.5); 0.01% Tween-20; 0.1 mg/mL BSA, and either 0.8 nM EGFR, 10 nM ErbB2, or 1 nM ErbB4. The Enzyme Mix was added to the compound plates and the plates were incubated at 20° C. for 1 hr. The reactions were then started by adding the Substrate Mix.
(§7) After initiating the reaction with the method described above, the reactions were allowed to proceed for 90 minutes at 20° C. The reactions were then terminated by the addition of 20 μL 100 mM EDTA to each well. 40 μL/well of HTRF detection mix were added to the assay plates. The final concentrations of the detection reagents were: 100 mM HEPES (pH7.5), 0.1 mg/mL BSA, 15 nM streptavidin-labeled allophycocyanin (PerkinElmer), and 1 nM europium-labeled anti-phosphotyrosine antibody (Perkin Elmer). Assay plates were left unsealed and were counted in a Wallac Multilabel Counter 1420 (PerkinElmer).
(§8) Compounds under analysis were dissolved in dimethylsulfoxide (DMSO) to 1.0 mM and serially diluted 1 to 3 with DMSO through twelve dilutions. 1 μL of each concentration was transferred to the corresponding well of an assay plate. This creates a final compound concentration range from 0.00027 to 47.6 μM.
(§9) The data for dose responses were plotted as % Inhibition calculated with the data reduction formula 100*(1-(U1−C2)/(C1−C2)) versus concentration of compound where U1 is the unknown value, C1 is the average control value obtained for 4.76% DMSO, and C2 is the average control value obtained for 0.035 M EDTA. Data were fitted with a curve described by:
(§10) where Vmax is the upper asymptote, Y2 is the Y intercept, and K is the IC50. The results for each compound were recorded as pIC50s, calculated as follows: […]

B-Raf = B-Raf (Homo sapiens, UniProt P15056); test: B-Raf Accelerated MEK ATPase assay (BRAMA), Method A or B; type: biochemical; settings: Method B: final MEK 150 nM, single end point read
Chain of B-Raf (P15056 whole entry): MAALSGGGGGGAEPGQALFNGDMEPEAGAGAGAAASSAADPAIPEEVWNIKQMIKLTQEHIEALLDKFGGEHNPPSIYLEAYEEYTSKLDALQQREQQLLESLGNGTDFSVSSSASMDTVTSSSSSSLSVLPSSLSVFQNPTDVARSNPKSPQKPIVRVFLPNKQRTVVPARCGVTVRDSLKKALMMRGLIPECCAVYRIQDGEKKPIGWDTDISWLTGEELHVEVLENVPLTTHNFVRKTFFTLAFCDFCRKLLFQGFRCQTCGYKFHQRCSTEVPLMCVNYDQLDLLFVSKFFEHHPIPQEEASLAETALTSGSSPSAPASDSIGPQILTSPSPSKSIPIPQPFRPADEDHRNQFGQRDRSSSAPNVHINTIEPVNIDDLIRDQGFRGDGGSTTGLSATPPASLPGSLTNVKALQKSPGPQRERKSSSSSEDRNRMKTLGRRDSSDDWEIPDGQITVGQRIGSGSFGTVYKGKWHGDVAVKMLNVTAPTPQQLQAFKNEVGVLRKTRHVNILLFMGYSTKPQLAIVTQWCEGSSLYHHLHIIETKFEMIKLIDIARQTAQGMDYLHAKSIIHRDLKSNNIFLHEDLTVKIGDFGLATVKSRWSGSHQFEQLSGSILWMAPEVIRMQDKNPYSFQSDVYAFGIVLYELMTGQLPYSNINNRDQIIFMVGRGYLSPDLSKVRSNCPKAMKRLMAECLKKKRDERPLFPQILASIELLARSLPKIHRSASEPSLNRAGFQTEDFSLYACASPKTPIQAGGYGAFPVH
Experimental: Compounds of the present invention were tested for B-Raf protein serine kinase inhibitory activity in a B-Raf Accelerated MEK ATPase assay (BRAMA). The BRAMA assay is a high sensitivity assay which measures an intrinsic MEK-mediated ATP hydrolysis uncoupled from downstream ERK phosphorylation by coupling the formation of ADP to NADH oxidation through the enzymes pyruvate kinase and lactate dehydrogenase. When ADP production is initiated by addition of catalytic amounts of an activated Raf enzyme and non-phosphorylated MEK, one observes robust ADP production concomitant with Raf-mediated phosphorylation of MEK.
Method A: Specific details of the assay are disclosed in: C. Rominger, M. Schaber, E. May. Assay for B-Raf Activity Based on Intrinsic MEK ATPase Activity. Statutory Invention Registration 11/084,993 (March, 2005). Method B: The method is the same as method A, but includes the following changes: 1) the assay was performed with a final MEK concentration of 150 nM and 2) the assay was read as single end point instead of a kinetic read.

EGFR = target: T2, EGFR (Homo sapiens, UniProt P00533); test: EGFR substrate phosphorylation assay (HTRF); type: biochemical
T2 construct: made in house; host or cells: baculovirus expression system
T2 sequence (P00533 25-1210): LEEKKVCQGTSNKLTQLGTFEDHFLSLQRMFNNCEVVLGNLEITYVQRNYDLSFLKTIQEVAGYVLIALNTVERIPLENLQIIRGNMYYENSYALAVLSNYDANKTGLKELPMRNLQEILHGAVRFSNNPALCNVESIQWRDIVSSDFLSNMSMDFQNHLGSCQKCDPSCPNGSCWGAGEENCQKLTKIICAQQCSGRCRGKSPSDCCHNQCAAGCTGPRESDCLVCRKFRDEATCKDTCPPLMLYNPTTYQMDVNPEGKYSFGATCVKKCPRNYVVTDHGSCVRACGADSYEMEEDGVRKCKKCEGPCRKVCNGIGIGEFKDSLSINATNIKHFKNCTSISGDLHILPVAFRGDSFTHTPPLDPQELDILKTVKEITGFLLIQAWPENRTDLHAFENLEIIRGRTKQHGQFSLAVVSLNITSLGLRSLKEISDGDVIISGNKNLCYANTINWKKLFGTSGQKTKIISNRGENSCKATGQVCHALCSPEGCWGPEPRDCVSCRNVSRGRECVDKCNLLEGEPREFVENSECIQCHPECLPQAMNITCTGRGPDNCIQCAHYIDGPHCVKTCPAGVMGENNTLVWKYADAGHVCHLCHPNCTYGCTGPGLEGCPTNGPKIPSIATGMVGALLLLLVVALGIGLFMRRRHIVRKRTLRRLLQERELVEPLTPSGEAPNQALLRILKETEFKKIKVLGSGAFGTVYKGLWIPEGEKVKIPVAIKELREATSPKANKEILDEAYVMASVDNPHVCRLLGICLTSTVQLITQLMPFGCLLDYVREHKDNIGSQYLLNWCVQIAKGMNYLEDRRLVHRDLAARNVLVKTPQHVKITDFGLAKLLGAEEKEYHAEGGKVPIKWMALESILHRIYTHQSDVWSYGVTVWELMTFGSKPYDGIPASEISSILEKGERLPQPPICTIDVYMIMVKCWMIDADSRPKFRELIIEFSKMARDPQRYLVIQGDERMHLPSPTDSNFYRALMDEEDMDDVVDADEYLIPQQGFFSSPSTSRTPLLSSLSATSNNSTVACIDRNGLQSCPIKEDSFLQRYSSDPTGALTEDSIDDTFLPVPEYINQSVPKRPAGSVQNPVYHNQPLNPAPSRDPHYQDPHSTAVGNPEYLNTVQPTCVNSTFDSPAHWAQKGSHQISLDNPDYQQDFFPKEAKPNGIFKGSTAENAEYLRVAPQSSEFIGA
Experimental: as §4, §5, §6, §7, §8, §9, §10

Colo205 tumor cells = test: Cell growth inhibition assay (CellTiter-Glo), Colo205; type: cell-based, Human; settings: Homo sapiens, COLO 205, 72 h; 3 days incubation
Experimental: as §1, §2, §3

Row | IC50 (SK-MEL-28 tumor cells) | IC50 (ErbB2) | IC50 (B-Raf) | IC50 (EGFR) | IC50 (Colo205 tumor cells) | SMILES
1 | > 1000 nM | 100 to 1000 nM | 100 to 1000 nM | > 1000 nM | > 1000 nM | COc1cc(N2CCN(CCS(C)(=O)=O)CC2)c(C)cc1Nc1nccc(-c2sc(C(C)C)nc2-c2cccc(NS(=O)(=O)c3cn(C)cn3)c2)n1 [Example 43]
2 | 100 to 1000 nM | < 100 nM | 100 to 1000 nM | 100 to 1000 nM | < 100 nM | COc1cc(N2CCN(CCS(C)(=O)=O)CC2)c(C)cc1Nc1nccc(-c2sc(C3CC3)nc2-c2cccc(NS(=O)(=O)c3c(F)cccc3F)c2)n1 [Example 175]
3 | 100 to 1000 nM | 100 to 1000 nM | 100 to 1000 nM | > 1000 nM | < 100 nM | COc1cc(N2CCN(CCS(C)(=O)=O)CC2)c(C)cc1Nc1nccc(-c2sc(C3CCCC3)nc2-c2cccc(NS(=O)(=O)c3c(F)cccc3F)c2)n1 [Example 149]
4 | 100 to 1000 nM | 100 to 1000 nM | < 100 nM | 100 to 1000 nM | < 100 nM | COc1cc(N2CCC3(CC2)CCN(S(C)(=O)=O)CC3)c(C)cc1Nc1nccc(-c2sc(C(C)C)nc2-c2cccc(NS(=O)(=O)c3c(F)cccc3F)c2F)n1 [Example 160]
5 | < 100 nM | > 1000 nM | < 100 nM | > 1000 nM | 100 to 1000 nM | O=S(=O)(Nc1cccc(-c2nc(-c3ccc(F)c(Cl)c3)sc2-c2ccnc(Nc3ccc(N4CCOCC4)nc3)n2)c1F)c1c(F)cccc1F [Example 143]
6 | 100 to 1000 nM | > 1000 nM | 100 to 1000 nM | > 1000 nM | 100 to 1000 nM | CC(C)c1nc(-c2ccc(F)c(NS(=O)(=O)c3c(F)cccc3F)c2)c(-c2ccnc(Nc3ncc[nH]3)n2)s1 [Example 147]
7 | > 1000 nM | < 100 nM | < 100 nM | 100 to 1000 nM | > 1000 nM | Nc1nc(-c2ccc(F)c(NS(=O)(=O)c3c(F)cccc3F)c2)c(-c2ccnc(Nc3ccc(N4CCOCC4)nc3)n2)s1 [Example 64]
8 | > 1000 nM | 100 to 1000 nM | 100 to 1000 nM | 100 to 1000 nM | > 1000 nM | CCc1nc(-c2cccc(CNS(=O)(=O)c3ccccc3)c2)c(-c2ccnc(Nc3ccc(N4CCN(C(C)=O)CC4)nc3)n2)s1 [Example 68]
9 | 100 to 1000 nM | 100 to 1000 nM | 100 to 1000 nM | 100 to 1000 nM | 100 to 1000 nM | COc1cc(N2CCN(CCS(C)(=O)=O)CC2)c(C)cc1Nc1nccc(-c2oc(N3CCCC3)nc2-c2cccc(NS(=O)(=O)c3c(F)cccc3F)c2)n1 [Example 136]
10 | 100 to 1000 nM | 100 to 1000 nM | 100 to 1000 nM | > 1000 nM | 100 to 1000 nM | CC(C)c1nc(-c2cccc(NS(=O)(=O)c3cccc(OC(F)F)c3)c2)c(-c2ccnc(Nc3ccc(N4CCOCC4)nc3)n2)s1 [Example 141]
11 | 100 to 1000 nM | 100 to 1000 nM | < 100 nM | 100 to 1000 nM | 100 to 1000 nM | COc1cc(CCN2CCCCC2)c(F)cc1Nc1nccc(-c2sc(C(C)C)nc2-c2cccc(NS(=O)(=O)c3c(F)cccc3F)c2)n1 [Example 156]
12 | > 1000 nM | > 1000 nM | 100 to 1000 nM | > 1000 nM | 100 to 1000 nM | COc1ccc(S(=O)(=O)Nc2cccc(-c3nc(C(C)C)sc3-c3ccnc(Nc4ccc(N5CCOCC5)nc4)n3)c2)cc1OC [Example 104]
13 | < 100 nM | < 100 nM | < 100 nM | < 100 nM | < 100 nM | COc1cc(N2CCN(CCS(C)(=O)=O)CC2)c(C)cc1Nc1nccc(-c2sc(C3CCOCC3)nc2-c2cccc(NS(=O)(=O)c3c(F)cccc3F)c2)n1 [Example 150]
14 | > 1000 nM | 100 to 1000 nM | 100 to 1000 nM | 100 to 1000 nM | > 1000 nM | CCc1nc(-c2cccc(CNS(=O)(=O)c3ccccc3)c2)c(-c2ccnc(Nc3ccc(N4CCN(CCS(C)(=O)=O)CC4)c(F)c3)n2)s1 [Example 35]
15 | > 1000 nM | 100 to 1000 nM | 100 to 1000 nM | > 1000 nM | 100 to 1000 nM | Cc1cc(S(=O)(=O)Nc2cccc(-c3nc(C(C)C)sc3-c3ccnc(Nc4ccc(N5CCOCC5)nc4)n3)c2)c(F)cc1Cl [Example 105]
16 | 100 to 1000 nM | < 100 nM | 100 to 1000 nM | > 1000 nM | < 100 nM | COc1cc(N2CCN(CCS(C)(=O)=O)CC2)c(C)cc1Nc1nccc(-c2sc(C(C)C)nc2-c2cncc(NS(=O)(=O)c3c(F)cccc3F)c2)n1 [Example 48]
